Laboratory results from US20040116489A1, “Synthetic excitatory amino acids” (priority 2003, published 2004).

What was measured:
[1] = target: T1, recombinant human mGluR2 (Homo sapiens, UniProt Q14416); experiment: [3H]LY341495 displacement binding, mGlu2; conditions: displacement of [3H]LY341495; receptors expressed in RGT cells; read-out: Ki (nM) ± SEM mGlu2, effects on [3H]LY341495 binding
T1 construct: expressed in transfected cells; host or cells: RGT cells
Protocol: (§1) To study the ability to affect receptor binding of compounds of the present invention in comparison to compounds of U.S. Pat. No. 5,958,960, displacement of a high affinity mGluR2 antagonist radioligand [^3H]LY341495 from recombinant human mGluR2 and human mGluR3 receptors expressed in RGT cells was determined.

[2] = target: T2, human mGluR3 (Homo sapiens, UniProt Q14832); experiment: [3H]LY341495 displacement binding, mGlu3; conditions: displacement of [3H]LY341495; receptors expressed in RGT cells; read-out: Ki (nM) ± SEM mGlu3, effects on [3H]LY341495 binding
T2 construct: expressed in transfected cells; host or cells: RGT cells
Protocol: as §1

[3] = target: T3, recombinant mGlu2 receptors (Homo sapiens, UniProt Q14416); experiment: forskolin-stimulated cAMP accumulation in cells expressing mGlu2; type: cell-based; conditions: for EC50: agonist: reduces cAMP accumulation to 50% of the controls, read-out: EC50 (nM) ± SEM mGlu2, forskolin-stimulated cAMP accumulation; for IC50: antagonist: blocks agonist induced decrease in forskolin-stimulated cAMP, read-out: IC50 (nM) ± SEM mGlu2, forskolin-stimulated cAMP accumulation
T3 construct: expressed in transfected cells
Protocol: (§2) To study the functional effect of compounds of the present invention in comparison to compounds of U.S. Pat. No. 5,958,960, forskolin stimulated c-AMP production in cells expressing recombinant mGlu2 and mGlu3 receptors was determined. As mGlu2 and mGlu3 receptors are negatively coupled to adenyl cyclase, activity of an agonist decreases forskolin-stimulated accumulation of cyclic adenosine monophosphate (cAMP) and is reported as the concentration necessary to reduce C-AMP accumulation to 50% of the controls (EC50, nM). The activity of an anatgonist blocks the agonist induced decrease in forskolin-stimulated accumulation of cyclic adenosine monophosphate (cAMP) and is reported as the concentration necessary to inhibit the reduction of C-AMP accumulation to 50% of the controls (IC50, nM).

[4] = target: T4, recombinant mGlu3 receptors (Homo sapiens, UniProt Q14832); experiment: forskolin-stimulated cAMP accumulation in cells expressing mGlu3; type: cell-based; conditions: for EC50: agonist: reduces cAMP accumulation to 50% of the controls, read-out: EC50 (nM) ± SEM mGlu3, forskolin-stimulated cAMP accumulation; for IC50: antagonist: blocks agonist induced decrease in forskolin-stimulated cAMP, read-out: IC50 (nM) ± SEM mGlu3, forskolin-stimulated cAMP accumulation
T4 construct: expressed in transfected cells
Protocol: as §2

T3 sequence (Q14416 19-872): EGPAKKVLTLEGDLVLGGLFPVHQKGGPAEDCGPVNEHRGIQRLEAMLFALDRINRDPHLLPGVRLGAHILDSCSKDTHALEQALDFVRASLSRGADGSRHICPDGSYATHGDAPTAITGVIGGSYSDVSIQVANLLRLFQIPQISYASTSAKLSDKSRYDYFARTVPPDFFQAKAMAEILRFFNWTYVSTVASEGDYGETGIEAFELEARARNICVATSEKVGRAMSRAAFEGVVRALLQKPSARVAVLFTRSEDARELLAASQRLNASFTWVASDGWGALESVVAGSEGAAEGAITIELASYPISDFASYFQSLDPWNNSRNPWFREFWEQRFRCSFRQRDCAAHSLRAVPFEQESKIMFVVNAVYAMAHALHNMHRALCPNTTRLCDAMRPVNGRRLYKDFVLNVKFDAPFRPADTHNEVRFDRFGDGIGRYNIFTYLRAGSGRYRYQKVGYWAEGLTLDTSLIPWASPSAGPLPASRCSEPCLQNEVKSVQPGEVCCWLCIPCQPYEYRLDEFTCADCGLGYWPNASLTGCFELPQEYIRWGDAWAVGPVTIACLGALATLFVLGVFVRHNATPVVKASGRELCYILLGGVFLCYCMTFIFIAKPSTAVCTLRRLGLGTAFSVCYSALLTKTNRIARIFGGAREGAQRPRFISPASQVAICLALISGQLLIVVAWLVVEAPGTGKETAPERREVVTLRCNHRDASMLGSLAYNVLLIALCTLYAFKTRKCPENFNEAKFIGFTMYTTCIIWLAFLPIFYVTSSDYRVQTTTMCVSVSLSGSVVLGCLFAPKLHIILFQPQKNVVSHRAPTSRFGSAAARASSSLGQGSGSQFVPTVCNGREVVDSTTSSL
T1 sequence (Q14416 19-872): as above
T4 sequence (Q14832 23-879): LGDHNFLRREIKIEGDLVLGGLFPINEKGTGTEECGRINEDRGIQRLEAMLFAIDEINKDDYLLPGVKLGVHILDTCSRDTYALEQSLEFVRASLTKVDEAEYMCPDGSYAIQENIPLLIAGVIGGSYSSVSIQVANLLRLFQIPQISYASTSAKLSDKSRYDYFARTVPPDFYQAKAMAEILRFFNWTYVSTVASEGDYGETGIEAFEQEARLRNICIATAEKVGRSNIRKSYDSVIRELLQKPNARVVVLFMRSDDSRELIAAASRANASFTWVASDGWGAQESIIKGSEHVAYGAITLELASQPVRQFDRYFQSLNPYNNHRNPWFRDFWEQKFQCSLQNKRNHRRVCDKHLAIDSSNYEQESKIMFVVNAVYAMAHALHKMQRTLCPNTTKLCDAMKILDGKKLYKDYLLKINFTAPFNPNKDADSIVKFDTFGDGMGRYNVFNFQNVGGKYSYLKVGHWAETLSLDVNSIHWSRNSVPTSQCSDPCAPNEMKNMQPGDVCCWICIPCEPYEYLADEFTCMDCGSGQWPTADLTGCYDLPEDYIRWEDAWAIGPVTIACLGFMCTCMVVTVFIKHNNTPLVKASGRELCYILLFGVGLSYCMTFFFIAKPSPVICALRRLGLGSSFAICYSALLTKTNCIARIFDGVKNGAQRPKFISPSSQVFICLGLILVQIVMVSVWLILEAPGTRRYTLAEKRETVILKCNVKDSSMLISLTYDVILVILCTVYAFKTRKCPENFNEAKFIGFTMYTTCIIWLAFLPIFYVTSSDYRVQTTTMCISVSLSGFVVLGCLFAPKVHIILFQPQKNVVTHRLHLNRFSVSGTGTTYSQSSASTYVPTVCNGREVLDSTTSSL
T2 sequence (Q14832 23-879): as above

SMILES | Ki [1] [nM] | Ki [2] [nM] | EC50 [3] [nM] | EC50 [4] [nM] | IC50 [3] [nM] | IC50 [4] [nM]
CNC(=O)N[C@H]1C[C@@](N)(C(=O)O)[C@@H]2[C@@H](C(=O)O)[C@@H]21 (relative stereo) [Example 20, (1S*, 2S*, 4S*, 5R*, 6S*) 2-Amino-4-(3-methyl-ureido)-bicyclo[3.1.0]hexane-2,6-dicarboxylic acid] | 254 ± 10.7 | 23 ± 2.6 | 426 ± 41.8 | 41.1 ± 11.1 | – | –
CC(=O)N[C@H]1C[C@@](N)(C(=O)O)[C@@H]2[C@@H](C(=O)O)[C@@H]21 (relative stereo) [Example 23, (1S*, 2S*, 4S*, 5R*, 6S*) 4-Acetylamino-2-amino-bicyclo[3.1.0]hexane-2,6-dicarboxylic acid] | 772 ± 38.8 | 214 ± 14.6 | 1350 | 1730 | – | –
N[C@@]1(C(=O)O)C[C@@H](NC(=O)c2ccccc2)[C@H]2[C@H](C(=O)O)[C@H]21 (relative stereo) [1S*, 2S*, 4R*, 5R*, 6S*) 2-Amino-4-benzoylaminobicyclo[3.1.0]hexane-2,6-dicarboxylic acid] | 607 ± 10.2 | 393 ± 17.8 | – | – | 4060 | 9520
CNC(=O)N[C@@H]1C[C@@](N)(C(=O)O)[C@@H]2[C@@H](C(=O)O)[C@@H]21 (relative stereo) [(1S*, 2S*, 4R*, 5R*, 6S*) 2-Amino-4-(3-methylureido)bicyclo[3.1.0]hexane-2,6-dicarboxylic acid] | 468 ± 29 | 408 ± 25.4 | – | – | 3220 | 6270

The remaining molecules from weak to strong by Ki [1], led by results:

Ki [1] [nM] | Ki [2] [nM] | EC50 [3] [nM] | EC50 [4] [nM] | IC50 [3] [nM] | IC50 [4] [nM] | SMILES
638 ± 59.6 | 399 ± 67.8 | – | – | 4300 | 11100 | CC(=O)N[C@@H]1C[C@@](N)(C(=O)O)[C@@H]2[C@@H](C(=O)O)[C@@H]21 (relative stereo) [(1S*, 2S*, 4R*, 5R*, 6S*) 4-Acetylamino-2-aminobicyclo[3.1.0]hexane-2,6-dicarboxylic acid]
511 ± 89 | 9.54 ± 0.73 | 60.7 ± 1.03 | 18.1 ± 2.87 | – | – | N[C@@]1(C(=O)O)C[C@H](NC(=O)c2ccccc2)[C@H]2[C@H](C(=O)O)[C@H]21 (relative stereo) [Example 24, (1S*, 2S*, 4S*, 5R*, 6S*) 2-Amino-4-benzoylamino-bicyclo[3.1.0]hexane-2,6-dicarboxylic acid]
